Where “and” joins values, the source holds several entries; their conditions need not be identical. Equal values may be shown once. Entries after “also recorded” stand apart in the source; their conditions may differ. Read-outs that look alike come from different tables or passages of the source.
Experiments:
[1] = Toxic effects at high doses (statement); format: in vivo; settings: when administered in high doses
[2] = Desolvation during handling and formulation (statement); format: physicochemical
[3] = Exposure and absorption upon in vivo administration (statement)
[4] = Photostability: light exposure under ICH Q1B conditions, impurities by HPLC; format: physicochemical
Protocol: Uncoated tablets, 0.5, 1 and 2 mg were exposed to ICH Photostability conditions and tested to provide baseline impurity information for comparison.

[5] = Solubility (comparative statement); format: physicochemical
[6] = Single-dose (Day 1) pharmacokinetics of Compound tablets, first-time-in-human study; settings: fasting; for AUC(0-t): AUC (0-24); for Tmax: median (range)
Description: Preliminary PK data was obtained in subjects with solid tumors following single-and repeat-dose oral administration of Compound tablets.

[7] = clinical; settings: human, plasma, oral, 2 mg
Description: (§4) Preliminary PK data was obtained in subjects with solid tumors following single-and repeat-dose oral administration of Compound tablets. The dose-escalation part of the first-time-in-human study (FTIH), involved administration of Compound in one of 3 main dosing regimens: • QD dosing with the designated dose for 21 days, followed by 7 days without drug; • Administration of a loading dose (LD) on both Day 1 and Day 2, or on Day 1 only, followed by continuous QD dosing with the designated dose; or • Administration of continuous QD dosing without a loading dose.
(§5) Additional blood samples were taken pre-dose on Day 15 of Cycle 1 and Day 1 of further cycles in Part 2 and Part 3 to assess steady state trough levels of Compound.

[8] = Repeat dose toxicokinetics and toxicology, oral gavage, DMSO solvate of Compound, rat; settings: for Cmax End of Study: Sprague Dawley, rat, in vivo, po, 0.25 mg/m2
Description: (§1) The pharmacokinetics, absorption, distribution, metabolism and elimination of N-{3-[3-cyclopropyl-5-(2-fluoro-4-iodo-phenylamino)-6, 8-dimethyl-2,4,7-trioxo-3,4,6,7-tetrahydro-2H-pyrido[4,3-d]pyrimidin-1-yl]phenyl}acetamide and solvates thereof, including the dimethyl sulfoxide solvate (collectively referred to as “Compound” when used in connection with animal models or human clinical trials), were investigated in a series of in vitro investigations and with in vivo oral (gavage) and IV studies in the Balb/c mouse, Sprague Dawley rat (unless otherwise stated), beagle dog and cynomolgus monkey using unlabeled and [14C]-labeled Compound. A list of these studies is included, along with subsequently obtained human clinical results, in Table 1 below. For in vivo studies, various formulations were used. For oral dosing, solutions or suspensions were administered.
(§2) Dose range studies in rats at doses up to 1 mg/kg/day for 14 days and in dogs at doses up to 0.5 mg/kg/day (or 10 mg/m2/day) for 10 days were conducted prior to the studies.
(§3) In vivo toxicology studies were conducted in Sprague Dawley rats and beagle dogs by oral gavage (Table 3). Studies were conducted using the DMSO solvate of Compound formulated as a suspension in 1.5% hydroxypropylmethylcellulose, 5% mannitol, and 0.2% sodium lauryl sulfate. For all toxicology studies, doses are expressed based on body surface area (mg/m2). In general, to convert mg/m2 doses to mg/kg, divide the doses by 8 for rats and 20 for dogs.

[9] = female, beagle, dog, in vivo, po
Description: as §1, §2
as §3, with “In general, to convert mg/m2 doses to mg/kg, divide the doses by 8 for rats and 20 for dogs.” left out

[10] = Repeat-dose (Day 15) pharmacokinetics of Compound tablets, first-time-in-human study; settings: individual values
Description: as §4, §5

[11] = single dose Day 1, oral tablets, 0.5 mg, individual values
[12] = single dose Day 1, oral tablets, 1.0 mg, individual values

CC(=O)Nc1cccc(-n2c(=O)n(C3CC3)c(=O)c3c(Nc4ccc(I)cc4F)n(C)c(=O)c(C)c32)c1 [Compound A, N-{3-[3-cyclopropyl-5-(2-fluoro-4-iodo-phenylamino)-6,8-dimethyl-2,4,7-trioxo-3,4,6,7-tetrahydro-2H-pyrido[4,3-d]pyrimidin-1-yl]phenyl}acetamide dimethyl sulfoxide solvate]
toxic effects [1]: can cause toxic effects when administered in high doses
desolvation to unsolvated Compound B [2]: can undergo desolvation
exposure and absorption [3]: poor exposure and absorption
photo-stability (in words) [4]: sensitive to photo-induced degradation; also recorded: can suffer from photo-instability

CC(=O)Nc1cccc(-n2c(=O)n(C3CC3)c(=O)c3c(Nc4ccc(I)cc4F)n(C)c(=O)c(C)c32)c1 [Compound B, N-{3-[3-cyclopropyl-5-(2-fluoro-4-iodo-phenylamino)-6,8-dimethyl-2,4,7-trioxo-3,4,6,7-tetrahydro-2H-pyrido[4,3-d]pyrimidin-1-yl]phenyl}acetamide]
solubility compared with Compound A [5]: much less soluble than Compound A

CC(=O)Nc1cccc(-n2c(=O)n(C3CC3)c(=O)c3c(Nc4ccc(I)cc4F)n(C)c(=O)c(C)c32)c1 [Compound, N-{3-[3-cyclopropyl-5-(2-fluoro-4-iodo-phenylamino)-6,8-dimethyl-2,4,7-trioxo-3,4,6,7-tetrahydro-2H-pyrido[4,3-d]pyrimidin-1-yl]phenyl}acetamide]
C24 ([6]; Day 1, oral tablets, 6.0 mg loading dose, mean (CV %) and range): (3.4-11.1) ng/mL
C24 ([6]; Day 1, oral tablets, 8.0 mg loading dose, mean (CV %) and range): (2.98-12.1) ng/mL
C24 ([6]; Day 1, oral tablets, 10.0 mg loading dose, mean (CV %) and range): (21.0-29.0) ng/mL
Cmax ([6]; human, plasma, po, 0.5 mg, Cmax, single dose Day 1, oral tablets, 0.5 mg, individual values): 0.85 ng/mL
AUC(0-t) ([6]; human, plasma, po, 1 mg, single dose Day 1, oral tablets, 1.0 mg, individual values): 13.5 ng·h/mL
Cmax ([6]; human, plasma, po, 1 mg, Cmax, single dose Day 1, oral tablets, 1.0 mg, individual values): 1.71 ng/mL
AUC(0-t) ([6]; human, plasma, po, 2 mg, single dose Day 1, oral tablets, 2.0 mg, mean (CV %) and range): 44.2 to 77.4 ng·h/mL
Cmax ([6]; human, plasma, po, 2 mg, Cmax, single dose Day 1, oral tablets, 2.0 mg, mean (CV %) and range): 5.4 to 8.81 ng/mL
Tmax ([6]; human, plasma, po, 2 mg, single dose Day 1, oral tablets, 2.0 mg): 1.5 to 2 h
AUC(0-t) ([6]; human, plasma, po, 2.5 mg, single dose Day 1, oral tablets, 2.5 mg, mean (CV %) and range): 47.3 to 95.9 ng·h/mL
Cmax ([6]; human, plasma, po, 2.5 mg, Cmax, single dose Day 1, oral tablets, 2.5 mg, mean (CV %) and range): 6.7 to 16.2 ng/mL
Tmax ([6]; human, plasma, po, 2.5 mg, single dose Day 1, oral tablets, 2.5 mg): 1 to 2 h
AUC(0-t) ([6]; human, plasma, po, 3 mg, single dose Day 1, oral tablets, 3.0 mg, mean (CV %) and range): 27.6 to 188 ng·h/mL
Cmax ([6]; human, plasma, po, 3 mg, Cmax, single dose Day 1, oral tablets, 3.0 mg, mean (CV %) and range): 2.82 to 22.9 ng/mL
Tmax ([6]; human, plasma, po, 3 mg, single dose Day 1, oral tablets, 3.0 mg): 0.5 to 3 h
AUC(0-t) ([6]; human, plasma, po, 4 mg, single dose Day 1, oral tablets, 4.0 mg, mean (CV %) and range): 167 to 275 ng·h/mL
Cmax ([6]; human, plasma, po, 4 mg, Cmax, single dose Day 1, oral tablets, 4.0 mg, mean (CV %) and range): 16.3 to 34.2 ng/mL
AUC(0-t) ([6]; human, plasma, po, 6 mg, Day 1, oral tablets, 6.0 mg loading dose, mean (CV %) and range): 96.7 to 320 ng·h/mL
Cmax ([6]; human, plasma, po, 6 mg, Cmax, Day 1, oral tablets, 6.0 mg loading dose, mean (CV %) and range): 6.91 to 37.2 ng/mL
Tmax ([6]; human, plasma, po, 6 mg, Day 1, oral tablets, 6.0 mg loading dose): 1.05 to 8.08 h
AUC(0-t) ([6]; human, plasma, po, 8 mg, Day 1, oral tablets, 8.0 mg loading dose, mean (CV %) and range): 62.9 to 308 ng·h/mL
Cmax ([6]; human, plasma, po, 8 mg, Cmax, Day 1, oral tablets, 8.0 mg loading dose, mean (CV %) and range): 4.28 to 32 ng/mL
Tmax ([6]; human, plasma, po, 8 mg, Day 1, oral tablets, 8.0 mg loading dose): 1 to 24 h
AUC(0-t) ([6]; human, plasma, po, 10 mg, Day 1, oral tablets, 10.0 mg loading dose, mean (CV %) and range): 773 to 979 ng·h/mL
Cmax ([6]; human, plasma, po, 10 mg, Cmax, Day 1, oral tablets, 10.0 mg loading dose, mean (CV %) and range): 65.1 to 87.8 ng/mL
Tmax ([6]; human, plasma, po, 10 mg, Day 1, oral tablets, 10.0 mg loading dose): 1 to 2 h
AUC (0-24) [6, 11]: 2.13 ng·h/mL and 9.69 ng·h/mL
C24 [6, 11]: 0 ng/mL and 0.31 ng/mL
AUC (0-24) [6, 12]: 12.2 ng·h/mL
C24 [6, 12]: 0.38 ng/mL and 0.27 ng/mL
Cmax [6, 12]: 1.96 ng/mL
C24 ([6]; single dose Day 1, oral tablets, 2.0 mg, mean (CV %) and range): (1.15-1.93) ng/mL
C24 ([6]; single dose Day 1, oral tablets, 2.5 mg, mean (CV %) and range): (1.25-3.10) ng/mL
C24 ([6]; single dose Day 1, oral tablets, 3.0 mg, mean (CV %) and range): (0.75-13.4) ng/mL
C24 ([6]; single dose Day 1, oral tablets, 4.0 mg, mean (CV %) and range): (5.53-14.9) ng/mL
half-life [7]: ~5 days
maximum tolerated dose (MTD) ([8]; Rat, 3 weeks, oral, two doses marked MTD, sex shown by bolding that is lost): 0.5 mg/m^2/day and 1 mg/m^2/day
Cmax End of Study ([8]; female): 8.03 ng/mL
Cmax End of Study ([8]; male): 5.34 ng/mL
Cmax End of Study ([9]; 0.3 mg/m2): 7.24 ng/mL
Cmax End of Study ([9]; 0.45 mg/m2): 9.78 ng/mL
AR (Accumulation Ratio) ([10]; repeat dose Day 15, 0.50 mg): 28.3 and 10.2
T1/2, eff (Effective Half-Life) ([10]; repeat dose Day 15, 0.50 mg): 19.2 days and 6.7 days
AR (Accumulation Ratio) ([10]; repeat dose Day 15, 1 mg): 18.1 and 7.8
T1/2, eff (Effective Half-Life) ([10]; repeat dose Day 15, 1 mg): 12.2 days and 5.1 days
AR (Accumulation Ratio) ([10]; repeat dose Day 15, 4 mg): 2.42 and 3.45
T1/2, eff (Effective Half-Life) ([10]; repeat dose Day 15, 4 mg): 2.02 days
